In ChEMBL document CHEMBL5331101, “Synthesis and evaluation of N-sulfonylpiperidine-3-carboxamide derivatives as capsid assembly modulators inhibiting HBV in vitro and in HBV-transgenic mice” (Eur J Med Chem, 2023):
Activity calls are given as the source filed them. The rule behind the calls is not given here.

Legend:
Hepatitis B virus [1] = assay: Antiviral activity against HBV infected in human HePAD38 cells assessed as reduction of capsid associated HBV DNA; format: functional, organism-based
Hepatitis B virus [2] = assay: Antiviral activity against HBV infected in human HePAD38 assessed as reduction on HBeAg level at 20 uM by ELISA analysis relative to control; format: functional; parameters: scale not given: the % may be the effect or the level left
[3] = Hepatotoxicity in C57BL/6 mouse assessed as effect on ALT level in serum at 30 mg/kg, po BID measured for 12 days; format: toxicity, organism-based; conditions: in vivo, 288 h, time 12 day
Hepatitis B virus [4] = assay: Antiviral activity against HBV infected in transgenic C57BL/6 mouse assessed as reduction in serum HBsAg level at 30 mg/kg, po BID measured for 12 days by ELISA analysis; format: functional, organism-based; conditions: time 12.0 day
Hepatitis B virus [5] = assay: Antiviral activity against HBV infected in human HePAD38 cells assessed as decay of viral core protein by agarose gel electrophoresis-based assay; format: functional, organism-based
Hepatitis B virus [6] = assay: Antiviral activity against HBV genotype D infected in human HepG2 cells assessed as inhibition of viral replication; format: functional, organism-based
[7] = Cytotoxicity against human HepAD38 cells assessed as reduction in cell viability incubated for 6 days by CCK-8 assay; format: functional; conditions: HePAD38, 144 h, time 6 day
Hepatitis B virus [8] = assay: Antiviral activity against HBV infected in transgenic C57BL/6 mouse assessed as reduction in intrahepatic 3.5 kb HBV RNA level at 30 mg/kg, po BID measured for 12 days by RT-PCR analysis; format: functional, organism-based; conditions: time 12.0 day
Hepatitis B virus [9] = assay: Antiviral activity against HBV infected in human HePAD38 cells assessed as reduction in capsid formation measured for 6 days by agarose gel electrophoresis-based assay; format: functional, organism-based; conditions: time 6.0 day
Hepatitis B virus [10] = assay: Antiviral activity against HBV infected in transgenic C57BL/6 mouse assessed as inhibition of viral replication by measuring log reduction in serum HBV DNA level at 30 mg/kg, po BID measured for 12 days by RT-PCR analysis; format: functional; conditions: time 12 day
Hepatitis B virus [11] = assay: Antiviral activity against HBV infected in transgenic C57BL/6 mouse assessed as reduction in serum HBsAg level at 100 mg/kg, po BID measured for 12 days by ELISA analysis; format: functional, organism-based; conditions: time 12.0 day
[12] = Hepatotoxicity in C57BL/6 mouse assessed as effect on AST level in serum at 100 mg/kg, po BID measured for 12 days; format: toxicity, organism-based; conditions: in vivo, 288 h, time 12 day
Hepatitis B virus [13] = assay: Antiviral activity against HBV infected in human HePAD38 cells assessed as reduction in intracellular 3.5 Kb HBV RNA level at 0.625 to 10 uM and incubated for 6 days by real-time PCR analysis; format: functional, organism-based; conditions: dose 0.625-10 µM, time 6.0 day
Hepatitis B virus [14] = assay: Effect on capsid morphology in human HePAD38 cells infected with Hepatitis B virus at 5 uM incubated for 6 days by immunofluorescence analysis; format: functional, organism-based; conditions: time 6.0 day
Hepatitis B virus [15] = assay: Antiviral activity against HBV infected in transgenic C57BL/6 mouse assessed as reduction in intrahepatic 3.5 kb HBV RNA level at 100 mg/kg, po BID measured for 12 days by RT-PCR analysis; format: functional, organism-based; conditions: time 12.0 day
[16] = Hepatotoxicity in C57BL/6 mouse assessed as effect on ALT level in serum at 100 mg/kg, po BID measured for 12 days; format: toxicity, organism-based; conditions: in vivo, 288 h, time 12 day
Hepatitis B virus [17] = assay: Antiviral activity against HBV infected in human HePAD38 cells assessed as reduction in […] level upto10 uM measured for 6 days by agarose gel electrophoresis-based assay; format: functional, organism-based; conditions: dose 10.0 µM, time 6.0 day
Hepatitis B virus [18] = assay: Antiviral activity against wild type HBV infected in human HepG2 cells assessed as inhibition of viral replication; format: functional, organism-based
[19] = Toxicity in C57BL/6 mouse assessed as histopathological changes in liver at 100 mg/kg, po measured after 12 days by H and E staining analysis; format: organism-based; conditions: in vivo, 288 h, time 12 day
Hepatitis B virus [20] = assay: Antiviral activity against HBV genotype A infected in human HepG2 cells assessed as inhibition of viral replication; format: functional, organism-based
Hepatitis B virus [21] = assay: Antiviral activity against HBV infected human HePAD38 cells assessed as reduction in HBsAg level in cell supernatant at 0.625 to 10 uM and measured after 6 days by ELISA analysis; format: functional, organism-based; conditions: dose 0.625-10 µM, time 6.0 day
Hepatitis B virus [22] = assay: Antiviral activity against HBV infected in human HePAD38 cells assessed as reduction in HBV core DNA level and incubated for 6 days by southern blot analysis; format: functional, organism-based; conditions: dose 0.625-10 µM, time 6.0 day
[23] = Hepatotoxicity in C57BL/6 mouse assessed as effect on AST level in serum at 30 mg/kg, po BID measured for 12 days; format: toxicity, organism-based; conditions: in vivo, 288 h, time 12 day
Hepatitis B virus [24] = assay: Antiviral activity against HBV genotype C infected in human HepG2 cells assessed as inhibition of viral replication; format: functional, organism-based
Hepatitis B virus [25] = assay: Antiviral activity against HBV infected in human HePAD38 cells assessed as reduction in encapsidated pgRNA at 0.625 to 10 uM incubated for 6 days by northern blot analysis; format: functional, organism-based; conditions: dose 0.625-10 µM, time 6.0 day
Hepatitis B virus [26] = assay: Antiviral activity against HBV infected in human HePAD38 cells assessed as reduction in capsid formation upto 10 uM measured for 6 days by agarose gel electrophoresis-based assay; format: functional, organism-based; conditions: time 6.0 day
Hepatitis B virus [27] = assay: Antiviral activity against HBV infected in human HepAD38 cells assessed as effect on capsid morphology at 20 uM incubated for 3 to 7 days by transmission electron microscopy; format: functional, organism-based; conditions: time 3-7 day
Hepatitis B virus [28] = assay: Antiviral activity against HBV infected in human HePAD38 cells assessed as reduction in capsid formation at 0.625 to 10 uM measured for 6 days by agarose gel electrophoresis-based assay; format: functional, organism-based; conditions: dose 0.625-10 µM, time 6.0 day
Hepatitis B virus [29] = assay: Antiviral activity against HBV infected in human HePAD38 cells assessed as reduction in intracellular core HBV DNA level at 20 uM incubated for 6 days by qPCR analysis relative to control; format: functional; parameters: scale not given: the % may be the effect or the level left; conditions: time 6 day
Hepatitis B virus [30] = assay: Antiviral activity against ETV-resistant HBV infected in human HepG2 cells assessed as inhibition of viral replication; format: functional, organism-based
[31] = Selectivity index, ratio of CC50 for cytotoxicity against human HepAD38 cells to EC50 for antiviral activity against HBV infected in human HePAD38 cells; format: toxicity, cell-based; conditions: read-out: Ratio CC50/EC50
Hepatitis B virus [32] = assay: Antiviral activity against HBV infected human HePAD38 cells assessed as reduction in HBeAg level in cell supernatant at 0.625 to 10 uM and measured after 6 days by ELISA analysis; format: functional, organism-based; conditions: dose 0.625-10 µM, time 6.0 day
[33] = Toxicity in C57BL/6 mouse assessed as histopathological changes in liver at 30 mg/kg, po measured after 12 days by H and E staining analysis; format: organism-based; conditions: in vivo, 288 h, time 12 day
Hepatitis B virus [34] = assay: Antiviral activity against HBV infected in transgenic C57BL/6 mouse assessed as inhibition of viral replication by measuring log reduction in liver HBV DNA level at 100 mg/kg, po BID measured for 12 days by RT-PCR analysis; format: functional; conditions: time 12 day
Hepatitis B virus [35] = assay: Antiviral activity against HBV infected in transgenic C57BL/6 mouse assessed as reduction in serum HBeAg level at 100 mg/kg, po BID measured for 12 days by ELISA analysis; format: functional, organism-based; conditions: time 12.0 day
Hepatitis B virus [36] = assay: Antiviral activity against HBV infected in human HePAD38 assessed as reduction on HBsAg level at 20 uM by ELISA analysis relative to control; format: functional; parameters: scale not given: the % may be the effect or the level left
Hepatitis B virus [37] = assay: Antiviral activity against HBV infected in transgenic C57BL/6 mouse assessed as inhibition of viral replication by measuring log reduction in serum HBV DNA level at 100 mg/kg, po BID measured for 12 days by RT-PCR analysis; format: functional; conditions: time 12 day
Hepatitis B virus [38] = assay: Antiviral activity against HBV genotype B infected in human HepG2 cells assessed as inhibition of viral replication; format: functional, organism-based
Hepatitis B virus [39] = assay: Antiviral activity against HBV infected in transgenic C57BL/6 mouse assessed as reduction in serum HBeAg level at 30 mg/kg, po BID measured for 12 days by ELISA analysis; format: functional, organism-based; conditions: time 12.0 day
Hepatitis B virus [40] = assay: Antiviral activity against HBV infected in transgenic C57BL/6 mouse assessed as inhibition of viral replication by measuring log reduction in liver HBV DNA level at 30 mg/kg, po BID measured for 12 days by RT-PCR analysis; format: functional; conditions: time 12 day
Hepatitis B virus [41] = assay: Antiviral activity against HBV infected in human HePAD38 cells assessed as reduction in intracellular 3.5 Kb HBV RNA level at 0.625 to 10 uM and incubated for 6 days by Northern blot analysis; format: functional, organism-based; conditions: dose 0.625-10 µM, time 6.0 day
Hepatitis B virus [42] = assay: Antiviral activity against HBV infected in human HePAD38 cells assessed as decay of viral capsid protein by agarose gel electrophoresis-based assay; format: functional, organism-based

CCOC(=O)c1c(S(=O)(=O)N2CCC[C@H](C(=O)Nc3ccc(F)c(C)c3)C2)c(C)n(CC(F)(F)F)c1C
EC50 (Hepatitis B virus [1]): 110 nM | Activity (Hepatitis B virus [2]): 36.9% | Activity [3]: Non-Toxic | Activity (Hepatitis B virus [4]): inactive | Activity (Hepatitis B virus [5]): inactive | EC50 (Hepatitis B virus [6]): 240 nM | CC50 [7]: 82.3 µM | Activity (Hepatitis B virus [8]): Active | Activity (Hepatitis B virus [9]): Dose-Dependent Effect | log(activity) (Hepatitis B virus [10]): 1.37 | Activity (Hepatitis B virus [11]): inactive | Activity [12]: Non-Toxic | Activity (Hepatitis B virus [13]): Active | Activity (Hepatitis B virus [14]): inactive | Activity (Hepatitis B virus [15]): Active | Activity [16]: Non-Toxic | Activity (Hepatitis B virus [17]): Active | EC50 (Hepatitis B virus [18]): 3.1 nM | Activity [19]: Non-Toxic | EC50 (Hepatitis B virus [20]): 130 nM | Activity (Hepatitis B virus [21]): inactive | Activity (Hepatitis B virus [22]): Dose-Dependent Effect | Activity [23]: Non-Toxic | EC50 (Hepatitis B virus [24]): 160 nM | Activity (Hepatitis B virus [25]): Active | Activity (Hepatitis B virus [26]): Active | Activity (Hepatitis B virus [27]): inactive | Activity (Hepatitis B virus [28]): Active | Activity (Hepatitis B virus [29]): 12% | EC50 (Hepatitis B virus [30]): 7.2 nM | selectivity ratio [31]: 775 | Activity (Hepatitis B virus [32]): Active | Activity [33]: Non-Toxic | log(activity) (Hepatitis B virus [34]): 0.98 | Activity (Hepatitis B virus [35]): Active | Activity (Hepatitis B virus [36]): 101.8% | log(activity) (Hepatitis B virus [37]): 2.42 | EC50 (Hepatitis B virus [38]): 120 nM | Activity (Hepatitis B virus [39]): Active | log(activity) (Hepatitis B virus [40]): 0.43 | Activity (Hepatitis B virus [41]): Active | Activity (Hepatitis B virus [42]): inactive
